According to patent US11650214B2, “Proteins of the WNT signaling pathway and uses thereof in the diagnostic and treatment of hypopigmentation disorders” (INSERM (INSTITUT NATIONAL DE LA SANTÉ ET DE LA RECHERCHE …, priority 2014, dated 2023):

Legend:
Format in all cases: cell-based, human
[1] = tested on: WNT pathway in lesional skin from vitiligo patients; assay: Ex vivo culture of lesional vitiligo skin biopsies with WNT pathway activators, RT-qPCR; conditions: 14 days, SKL2001 40 μM; for mRNA level of early melanoblast marker Brn2 / mRNA level of early melanoblast marker PAX3 / relative mRNA expression of LEF / relative mRNA expression of WNT family: CHIR99021 3 μM, LiCl 20 μM; for relative mRNA expression of LEF / relative mRNA expression of WNT family: stimulation every other day, n=9
Method: (§1) Vitiligo patients (n=9) were biopsied in lesional skin area. The biopsies were stimulated in ex vivo culture during 14 days with GSK3β inhibitor: CHIR99021 (3 μM) or LiCl (20 μM) or with WNT agonist: SKL2001 (40 μM) every other day. mRNA was extracted and a RT-qPCR was performed to quantify the relative expression of LEF (A) and the pre-melanocytes markers PAX3 (B), Brn2 (C) MITF (D) and DCT (E).
as §1, with “WNT family” for “LEF (A) and the pre-melanocytes markers PAX3 (B), Brn2 (C) MITF (D) and DCT (E).”
For vitiligo skin biopsies, after verification of the absence of melanocytes with Wood's lamp, two or three 6 mm biopsies composed of dermis plus epidermis were taken into lesional skin from vitiligo patients (n=9). The biopsies are rapidly put on transwell chamber of 0.4 μm (Becton Dickinson) and kept on semi liquid culture conditions in “Skin long term culture medium” (Biopredic). The skin was maintained at 37° C. in a wet 5% CO2 atmosphere.
The culture medium supplemented with Forskolin (Sigma Aldrich), LiCl (Sigma Aldrich), CHIR99021 (Calbiochem) or SKL2001 (Calbiochem) was changed […] during 14 days.
mRNA from melanocytes and keratinocytes was extracted with RNeasy kit (Qiagen). The biopsies are cut and disrupted with tissue ruptor (Qiagen) and the mRNA was extracted with RNeasy kit (Qiagen). cDNA were synthesized from 300 ng to 1 μg of mRNA with the Reverse Transcription System (Promega). Relative quantification of gene expression was measured by real time qPCR with Sybr green reagent (Life technology) on Step one system.
In order to induce the differentiation of melanocyte stem cells, they pharmacologically activated the WNT pathway in vitiligo skin cultured ex vivo as shown previously. They used two methods to activate the WNT pathway: a WNT agonist (SKL2001) and two GSK3β inhibitors: lithium chloride (LiCl) and a commercial specific inhibitor (CHIR99021). They biopsied 9 vitiligo subjects (6 mm punch) on diverse body locations ([…], 2 on trunk, 2 on leg, 1 on arm and 1 on axilla) and treated the ex vivo culture model during 14 days with a systemic stimulation every other day with the WNT activators.
They evaluated the activation of WNT pathway by the mRNA level of WNTs (TCF/LEF1 and the melanogenesis pathway by the mRNA level of MITF, DCT, PAX3 and BRn2) within the skin. Treatments with LiCl, CHIR99021 and SKL2001 induce an increase of all WNT and LEF after 14 days of stimulation (FIG. 6A and FIG. 11).

NHK (keratinocytes) = assay: Oxidative stress (H2O2) in NHK, qPCR of LEF1 and WNT family; conditions: 24 hours
Method: (§2) NHM (A) and NHK (B) and whole skin in ex vivo culture (C) were stimulated 24 hours with 25 to 100 μM of H2O2. After mRNA extraction, a reverse transcription was performed and the relative gene expression of LEF1 was analyzed with qPCR.
(§3) (A) NHM, (B) NHK and (C) whole skin in ex vivo culture were stimulated 24 hours with 25 to 100 μM of H2O2. After mRNA extraction, a reverse transcription was performed and the relative gene expression of WNT family was analyzed with qPCR.
(§4) NHMs and NHKs are obtained from the foreskin of phototype IV children as described previously. Briefly, epidermal cells are obtained by overnight digestion of the skin in a dispase solution (Roche) at 4° C. followed by the digestion of the epidermis in a trypsin/EDTA solution during 20 minutes at 37° C. […]
(§5) mRNA from melanocytes and keratinocytes was extracted with RNeasy kit (Qiagen). […] Relative quantification of gene expression was measured by real time qPCR with Sybr green reagent (Life technology) on Step one system.
(§6) Since the WNT pathway, implicated in melanocytes differentiation, seems to be affected in vitiligo skin, inventors tried to determine the element—known to be involved in vitiligo—responsible for this dysregulation. […] They induced an oxidative stress with H2O2 in melanocytes and keratinocytes and analyzed the expression of LEF and WNT family. […]

[2] = tested on: whole skin in ex vivo culture; assay: Oxidative stress (H2O2) in whole skin in ex vivo culture, qPCR of LEF1 and WNT family; conditions: whole skin biopsies ex vivo, 24 hours, 25 to 100 μM H2O2
Method: as §2, §3
Skin from abdominoplasty surgery was used to the development of the ex vivo skin culture model. The subcutaneous fat was removed and biopsies of 6 mm were done in the skin composed of dermis and epidermis.
as §5, §6

NHM (melanocytes) = assay: Oxidative stress (H2O2) in NHM, qPCR of LEF1 and WNT family; conditions: 24 hours
Method: as §2, §3, §4, §5, §6

[3] = 25 to 100 μM H2O2, majority of WNT

Structure (SMILES)	mRNA level of early melanoblast marker Brn2 [1]	mRNA level of early melanoblast marker PAX3 [1]	relative mRNA expression of LEF [1]	relative mRNA expression of WNT family [1]	expression of LEF (NHK (keratinocytes); 25 to 100 μM H2O2)	expression of WNT family (NHK (keratinocytes); [3])	expression of LEF [2]	expression of WNT family ([2]; most of the WNT family)	expression of LEF (NHM (melanocytes); 25 to 100 μM H2O2)	expression of WNT family (NHM (melanocytes); [3])	mRNA level of MITF [1]
Cc1c[nH]c(-c2cnc(NCCNc3ccc(C#N)cn3)nc2-c2ccc(Cl)cc2Cl)n1 [CHIR99021]	up-regulated	up-regulated	increase	increase							
OO [H2O2]					decreased	decreased	decrease expression	decrease expression	decreased	decreased	
O=C(NCCCn1ccnc1)c1cc(-c2ccco2)on1 [SKL2001]	up-regulated	up-regulated	increase	increase							increased
